Experimental data: patent publication US6339100B1, “Methods for inhibiting mastocytosis” (The Trustees of Columbia University in the City of New York, priority 1999, dated 2002)

What was measured:
[1] = tested on: platelet-derived growth factor receptor; conditions: cited from earlier work
C2 cells = assay: C2 cell proliferation and viability (trypan blue counting); assay type: cell-based, dog; conditions: treated daily with 1 μM
Protocol: (§1) FIG. 2: Effects of indolinone derivatives on neoplastic mast cell growth. […] Results (mean±SEM) represent averages of triplicate cultures.
(§2) KIT activity was determined by in vitro phosphorylation, as previously described (Ma et al, 1999a). The neoplastic mast cell line C2 and P815 have been previously described (Dunn et al, 1957; Lazarus et al, 1986; DeVinney and Gold, 1990), and their activating c-KIT mutations characterized (Tsujimura et al, 1994; Ma et al, 1999a). To determine cell proliferation and viability, cells from triplicate cultures were stained with trypan blue and counted in a hemocytometer. All experiments were repeated at least three times.

P815 cells = assay: P815 cell proliferation and viability (trypan blue counting); assay type: cell-based, murine; conditions: treated daily with 10 μM
Protocol: as §1, §2

insulin receptor = insulin receptor (Homo sapiens, UniProt P06213); conditions: cited from earlier work
wild-type KIT = assay: Phosphorylation of wild-type KIT expressed in COS cells (anti-phosphotyrosine blot); assay type: cell-based; conditions: 5 μM, 30 min, SCF 100 ng/ml 10 min
Protocol: (§3) FIG. 1: Effects of indolinone derivatives on phosphorylation of wild-type and mutant KITs. […] The compound with the structure VII or structure VI are effective against KIT containing an activating juxtamembrane domain mutation in C2 cells.
as §2

[2] = target: T1, KIT with substitution of Tyr for Asp814 (P815 KIT) (Mus musculus, UniProt P05532, D818Y); assay: Phosphorylation of mutant KIT in P815 cells; assay type: cell-based, murine; conditions: 40 μM, 30 min
T1 construct: mutant KITs expressed in C2 and P815 cells; endogenous in cells; host or cells: P815 murine mastocytoma cells
Protocol: as §3, §2
For activating mutations in the kinase domain, the P815 murine mast cell tumor line (Dunn et al, 1957) was examined. P815 c-KIT contains a point mutation resulting in substitution of Tyr for Asp814, the equivalent position of human Asp816, which causes constitutive receptor activation (Tsujimura et al, 1994).

[3] = tested on: fibroblast growth factor receptor; conditions: cited from earlier work
[4] = tested on: KIT with juxtamembrane insertion mutation (C2 KIT); assay: Constitutive phosphorylation of mutant KIT in C2 dog mastocytoma cells; assay type: cell-based; conditions: 5 μM
Protocol: as §3, §2
The effects of these compounds on constitutive activation of KIT mutants expressed by neoplastic mast cells were then tested. For activating juxtamembrane mutations, the C2 dog mastocytoma cell line was studied (Lazarus et al, 1986; DeVinney and Gold, 1990), in which KIT is constitutively active due to a juxtamembrane insertion mutation (Ma et al, 1999a). […] The effects of these compounds on constitutive phosphorylation of KIT bearing in the juxtamembrane region either deletion of Trp556-Lys557 or substitution of Pro for Leu575, mutations previously identified in dog mastocytomas (Ma et al, 1999a) were also examined.

T1 sequence (P05532 25-975 isoform P05532-2 D814Y): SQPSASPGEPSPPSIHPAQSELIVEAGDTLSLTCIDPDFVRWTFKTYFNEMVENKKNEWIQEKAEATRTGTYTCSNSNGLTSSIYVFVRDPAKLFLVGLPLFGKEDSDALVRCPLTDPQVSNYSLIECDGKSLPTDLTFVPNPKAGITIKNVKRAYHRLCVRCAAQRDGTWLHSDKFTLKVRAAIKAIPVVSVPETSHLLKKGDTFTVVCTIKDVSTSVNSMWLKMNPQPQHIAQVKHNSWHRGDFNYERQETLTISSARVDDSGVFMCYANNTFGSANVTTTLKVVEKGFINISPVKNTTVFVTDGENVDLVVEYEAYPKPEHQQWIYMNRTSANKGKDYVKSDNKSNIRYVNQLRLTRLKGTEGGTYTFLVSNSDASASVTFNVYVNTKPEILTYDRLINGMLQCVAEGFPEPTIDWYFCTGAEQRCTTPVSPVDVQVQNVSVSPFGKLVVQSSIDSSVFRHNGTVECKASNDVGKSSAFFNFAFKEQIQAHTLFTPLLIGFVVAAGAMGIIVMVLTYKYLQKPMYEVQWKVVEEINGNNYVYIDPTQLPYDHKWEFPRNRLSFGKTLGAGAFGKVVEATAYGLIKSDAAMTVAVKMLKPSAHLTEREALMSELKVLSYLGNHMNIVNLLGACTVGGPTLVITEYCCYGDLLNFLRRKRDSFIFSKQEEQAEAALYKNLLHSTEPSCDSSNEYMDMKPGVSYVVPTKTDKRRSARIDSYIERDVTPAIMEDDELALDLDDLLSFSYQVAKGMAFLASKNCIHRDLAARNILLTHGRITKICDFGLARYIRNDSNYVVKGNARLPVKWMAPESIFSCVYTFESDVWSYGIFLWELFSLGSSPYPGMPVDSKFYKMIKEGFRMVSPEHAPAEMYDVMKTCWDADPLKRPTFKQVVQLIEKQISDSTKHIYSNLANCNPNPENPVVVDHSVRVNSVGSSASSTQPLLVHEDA
insulin receptor, sequence (P06213 28-1382, species assumed): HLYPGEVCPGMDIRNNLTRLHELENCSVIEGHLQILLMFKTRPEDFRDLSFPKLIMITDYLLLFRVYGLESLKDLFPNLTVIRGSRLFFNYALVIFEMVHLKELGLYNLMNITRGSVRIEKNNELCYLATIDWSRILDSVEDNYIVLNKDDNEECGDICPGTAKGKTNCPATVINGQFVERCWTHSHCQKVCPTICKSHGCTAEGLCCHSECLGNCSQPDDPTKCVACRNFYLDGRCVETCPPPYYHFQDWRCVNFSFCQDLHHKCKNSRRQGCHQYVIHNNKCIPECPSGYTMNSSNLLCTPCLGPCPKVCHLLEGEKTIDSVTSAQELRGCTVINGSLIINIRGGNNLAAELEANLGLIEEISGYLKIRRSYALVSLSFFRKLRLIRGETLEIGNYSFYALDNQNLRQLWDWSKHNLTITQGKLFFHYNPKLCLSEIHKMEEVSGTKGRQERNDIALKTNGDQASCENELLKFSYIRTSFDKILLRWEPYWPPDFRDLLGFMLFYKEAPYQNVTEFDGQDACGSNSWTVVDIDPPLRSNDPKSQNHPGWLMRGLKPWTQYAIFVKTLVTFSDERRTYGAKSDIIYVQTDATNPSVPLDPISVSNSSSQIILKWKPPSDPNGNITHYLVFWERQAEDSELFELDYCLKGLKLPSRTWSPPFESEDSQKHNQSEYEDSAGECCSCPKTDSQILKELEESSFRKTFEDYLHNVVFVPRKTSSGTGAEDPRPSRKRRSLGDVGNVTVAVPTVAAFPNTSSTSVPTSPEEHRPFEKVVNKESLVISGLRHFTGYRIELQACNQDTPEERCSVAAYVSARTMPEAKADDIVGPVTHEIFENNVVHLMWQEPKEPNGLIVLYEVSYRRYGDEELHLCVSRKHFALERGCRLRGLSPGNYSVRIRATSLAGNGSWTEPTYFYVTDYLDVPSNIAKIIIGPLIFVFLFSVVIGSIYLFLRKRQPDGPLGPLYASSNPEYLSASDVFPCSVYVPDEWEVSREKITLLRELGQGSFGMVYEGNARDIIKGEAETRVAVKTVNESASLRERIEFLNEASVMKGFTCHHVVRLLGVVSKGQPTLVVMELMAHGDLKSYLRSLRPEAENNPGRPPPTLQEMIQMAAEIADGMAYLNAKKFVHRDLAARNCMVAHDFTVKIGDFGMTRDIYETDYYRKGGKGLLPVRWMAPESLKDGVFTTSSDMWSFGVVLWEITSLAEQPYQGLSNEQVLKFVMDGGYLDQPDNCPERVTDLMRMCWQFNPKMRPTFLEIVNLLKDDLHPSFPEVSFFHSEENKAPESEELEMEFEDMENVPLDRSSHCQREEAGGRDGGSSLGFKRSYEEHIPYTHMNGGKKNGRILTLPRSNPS

SMILES: O=CN1CCN(c2ccc(/C=C3/C(=O)Nc4ccccc43)cc2)CC1 [structure VII]
- inhibition of platelet-derived growth factor receptor [1]: effective
- effect on C2 cell proliferation (C2 cells): killed
- effect on P815 cell proliferation (P815 cells): killed
- inhibition of insulin receptor (insulin receptor): effective
- effect on tyrosine phosphorylation of the wild-type receptor (wild-type KIT): substantially reduce
- inhibition of phosphorylation of the P815 KIT mutant [2]: not effectively inhibiting
- inhibition of fibroblast growth factor receptor [3]: effective
- reduction of the constitutive C2 KIT phosphorylation [4]: approximately 50%
